This is an account of results in US20070010671A1, “Novel quinazoline derivatives and methods of treatment related to the use thereof” (priority 2003, published 2007).

The experiment deals with MCH receptor (Homo sapiens, UniProt Q99705). As to the kind of experiment: High throughput functional screening FLIPR/FDSS6000: inhibition of MCH-evoked intracellular Ca2+ changes. Format: cell-based. The following applies: class by percent of control at 10^-7 M or IC50. The gist of the method:
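Seed cells the day before, then load them with Fluo4-AM for one hour at 37° C and wash in HEPES-buffered HBSS, pH 7.4. Add compound for 3 min, then stimulate with 50 nM MCH. Monitor the calcium transient for 290 s.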

Turning to `CC(=O)c1ccc(NC(=S)NC[C@H]2CC[C@@H](Nc3nc(N(C)C)c4ccccc4n3)CC2)cc1` [compound 578], the class is listed as 3 (Class 3: The value of percent of control at 10^−7 M was more than 60% or the value of IC50 was more than 200 nM.). With `CN(C)c1nc(N[C@H]2CC[C@@H](CNC(=S)Nc3cc(C(F)(F)F)cc(C(F)(F)F)c3)CC2)nc2ccccc12` [compound 579] the figure was 3 (Class 3: The value of percent of control at 10^−7 M was more than 60% or the value of IC50 was more than 200 nM.); with `CN(C)c1nc(N[C@H]2CC[C@@H](CNC(=S)NCc3ccccc3)CC2)nc2ccccc12` [compound 580], 3 (Class 3: The value of percent of control at 10^−7 M was more than 60% or the value of IC50 was more than 200 nM.); with `CN(C)c1nc(N[C@H]2CC[C@@H](CNC(=S)Nc3cccc(Br)c3)CC2)nc2ccccc12` [compound 581], 3 (Class 3: The value of percent of control at 10^−7 M was more than 60% or the value of IC50 was more than 200 nM.).

On to `CN(C)c1nc(N[C@H]2CC[C@@H](CNC(=S)Nc3ccc(Br)cc3)CC2)nc2ccccc12` [compound 582], for which the class is on record as 3 (Class 3: The value of percent of control at 10^−7 M was more than 60% or the value of IC50 was more than 200 nM.). With `CCCCNC(=S)NC[C@H]1CC[C@@H](Nc2nc(N(C)C)c3ccccc3n2)CC1` [compound 583] the figure was 3 (Class 3: The value of percent of control at 10^−7 M was more than 60% or the value of IC50 was more than 200 nM.); with `CN(C)c1nc(N[C@H]2CC[C@@H](CNC(=S)Nc3ccc(C#N)cc3)CC2)nc2ccccc12` [compound 584], 3 (Class 3: The value of percent of control at 10^−7 M was more than 60% or the value of IC50 was more than 200 nM.). For the molecule `CN(C)c1nc(N[C@H]2CC[C@@H](CNC(=S)NC3CCCCC3)CC2)nc2ccccc12` [compound 585], the class was 3 (Class 3: The value of percent of control at 10^−7 M was more than 60% or the value of IC50 was more than 200 nM.).

`CN(C)c1nc(N[C@H]2CC[C@@H](CNC(=S)NC3CCCC3)CC2)nc2ccccc12` [compound 586]: the class was 3 (Class 3: The value of percent of control at 10^−7 M was more than 60% or the value of IC50 was more than 200 nM.). For `CN(C)c1nc(N[C@H]2CC[C@@H](CNC(=S)Nc3cccc(Cl)c3)CC2)nc2ccccc12` [compound 587] the value was 3 (Class 3: The value of percent of control at 10^−7 M was more than 60% or the value of IC50 was more than 200 nM.); for `CN(C)c1nc(N[C@H]2CC[C@@H](CNC(=S)Nc3ccc(Cl)cc3)CC2)nc2ccccc12` [compound 588], 3 (Class 3: The value of percent of control at 10^−7 M was more than 60% or the value of IC50 was more than 200 nM.).

Take `CN(C)c1nc(N[C@H]2CC[C@@H](CNC(=S)Nc3ccc(Cl)cc3Cl)CC2)nc2ccccc12` [compound 589]: the class was 3 (Class 3: The value of percent of control at 10^−7 M was more than 60% or the value of IC50 was more than 200 nM.). With `COc1ccc(NC(=S)NC[C@H]2CC[C@@H](Nc3nc(N(C)C)c4ccccc4n3)CC2)c(OC)c1` [compound 590] the figure was 3 (Class 3: The value of percent of control at 10^−7 M was more than 60% or the value of IC50 was more than 200 nM.); with `CN(C)c1nc(N[C@H]2CC[C@@H](CNC(=S)Nc3cc(F)ccc3F)CC2)nc2ccccc12` [compound 591], 3 (Class 3: The value of percent of control at 10^−7 M was more than 60% or the value of IC50 was more than 200 nM.); with `CN(C)c1nc(N[C@H]2CC[C@@H](CNC(=S)Nc3cc(Cl)ccc3Cl)CC2)nc2ccccc12` [compound 592], 3 (Class 3: The value of percent of control at 10^−7 M was more than 60% or the value of IC50 was more than 200 nM.).

For `Cc1cccc(C)c1NC(=S)NC[C@H]1CC[C@@H](Nc2nc(N(C)C)c3ccccc3n2)CC1` [compound 593, N-[(cis-4-{[4-(dimethylamino)quinazolin-2-yl]amino}cyclohexyl)methyl]-N′-(2,6-dimethylphenyl)thiourea], the class is given as 2 (Class 2: The value of percent of control at 10^−7 M was from 40% to 60% or the value of IC50 was from 50 nM to 200 nM.).

`CN(C)c1nc(N[C@H]2CC[C@@H](CNC(=S)Nc3ccc(Cl)c(Cl)c3)CC2)nc2ccccc12` [compound 594]: the class is listed as 3 (Class 3: The value of percent of control at 10^−7 M was more than 60% or the value of IC50 was more than 200 nM.). For `CN(C)c1nc(N[C@H]2CC[C@@H](CNC(=S)Nc3c(Cl)cccc3Cl)CC2)nc2ccccc12` [compound 595] the value was 2 (Class 2: The value of percent of control at 10^−7 M was from 40% to 60% or the value of IC50 was from 50 nM to 200 nM.); for `CCOc1ccc(NC(=S)NC[C@H]2CC[C@@H](Nc3nc(N(C)C)c4ccccc4n3)CC2)cc1` [compound 596], 3 (Class 3: The value of percent of control at 10^−7 M was more than 60% or the value of IC50 was more than 200 nM.).

In the case of `CCc1cccc(C(C)C)c1NC(=S)NC[C@H]1CC[C@@H](Nc2nc(N(C)C)c3ccccc3n2)CC1` [compound 597], the class was 2 (Class 2: The value of percent of control at 10^−7 M was from 40% to 60% or the value of IC50 was from 50 nM to 200 nM.).

As to `CN(C)c1nc(N[C@H]2CC[C@@H](CNC(=S)NCc3ccco3)CC2)nc2ccccc12` [compound 598], the class was 3 (Class 3: The value of percent of control at 10^−7 M was more than 60% or the value of IC50 was more than 200 nM.). For `CN(C)c1nc(N[C@H]2CC[C@@H](CNC(=S)Nc3ccc(F)cc3)CC2)nc2ccccc12` [compound 599] the value was 3 (Class 3: The value of percent of control at 10^−7 M was more than 60% or the value of IC50 was more than 200 nM.); for `CCCCCCNC(=S)NC[C@H]1CC[C@@H](Nc2nc(N(C)C)c3ccccc3n2)CC1` [compound 600], 3 (Class 3: The value of percent of control at 10^−7 M was more than 60% or the value of IC50 was more than 200 nM.); for `CCC[C@H]1CC[C@H](c2ccc(NC(=S)NC[C@H]3CC[C@@H](Nc4nc(N(C)C)c5ccccc5n4)CC3)cc2)CC1` [compound 601], 3 (Class 3: The value of percent of control at 10^−7 M was more than 60% or the value of IC50 was more than 200 nM.). For the molecule `CC(C)CNC(=S)NC[C@H]1CC[C@@H](Nc2nc(N(C)C)c3ccccc3n2)CC1` [compound 602, N-[(cis-4-{[4-(dimethylamino)quinazolin-2-yl]amino}cyclohexyl)methyl]-N′-isobutylthiourea], the class is 2 (Class 2: The value of percent of control at 10^−7 M was from 40% to 60% or the value of IC50 was from 50 nM to 200 nM.).

For `COc1ccc(-c2ccccc2)cc1NC(=S)NC[C@H]1CC[C@@H](Nc2nc(N(C)C)c3ccccc3n2)CC1` [compound 603], the class was 3 (Class 3: The value of percent of control at 10^−7 M was more than 60% or the value of IC50 was more than 200 nM.). For `CN(C)c1nc(N[C@H]2CC[C@@H](CNC(=S)NCc3ccc4c(c3)OCO4)CC2)nc2ccccc12` [compound 604] the value was 2 (Class 2: The value of percent of control at 10^−7 M was from 40% to 60% or the value of IC50 was from 50 nM to 200 nM.); for `Cc1cccc(NC(=S)NC[C@H]2CC[C@@H](Nc3nc(N(C)C)c4ccccc4n3)CC2)c1` [compound 605], 3 (Class 3: The value of percent of control at 10^−7 M was more than 60% or the value of IC50 was more than 200 nM.).
